Experimental data taken from ChEMBL document CHEMBL4706637, “Design, synthesis and biological evaluation of thioether-containing lenalidomide and pomalidomide derivatives with anti-multiple myeloma activity” (Eur J Med Chem, 2021).
Each block holds one molecule with its values, some of them ahead of it. Calls of active or inactive are those of the source. No cut-off for these calls is given here.

How the values were obtained:
[1] = target: DNA-binding protein Ikaros (Homo sapiens) (UniProt Q13422); assay: Induction of IKZF1 degradation in human MM1.S cells assessed as reduction in IKZF1 level incubated for 12 hrs by immunoblot analysis; type: cell-based; conditions: dose 0.02-2 µM
[2] = target: Zinc finger protein Aiolos (Homo sapiens) (UniProt Q9UKT9); assay: Induction of IKZF3 degradation in human MM1.S cells assessed as reduction in IKZF3 level incubated for 12 hrs by immunoblot analysis; type: cell-based; conditions: dose 0.02-2 µM
[3] = target: Zinc finger protein Aiolos (Homo sapiens) (UniProt Q9UKT9); assay: Induction of IKZF3 degradation in human MM1.S cells assessed as reduction in IKZF3 level at 0.02 to 2 uM incubated for 12 hrs by immunoblot analysis; type: cell-based; conditions: dose 0.02-2 µM
[4] = target: DNA-binding protein Ikaros (Homo sapiens) (UniProt Q13422); assay: Induction of IKZF1 degradation in human MM1.S cells assessed as reduction in IKZF1 level at 0.02 to 2 uM incubated for 12 hrs by immunoblot analysis; type: cell-based; conditions: dose 0.02-2 µM
[5] = Half-life in human liver microsomes; type: ADME, Microsome
[6] = Metabolic stability in human liver microsomes assessed as parent compound remaining; type: ADME, Microsome
[7] = Intrinsic clearance in human; type: ADME
[8] = Intrinsic clearance in human liver microsomes measured per gm of protein; type: ADME, Microsome
[9] = system: MM1.S; assay: Antitumor activity against human MM1.S cells xenografted in CB17-SCID mouse assessed as reduction in tumor weight at 60 mg/kg, po qd for 14 days and measured after 14 days; type: functional; conditions: 336 h, time 14 day
[10] = Hepatic intrinsic clearance in human; type: ADME
[11] = system: MM1.S; assay: Antiproliferative activity against human MM1.S cells assessed as reduction in cell growth measured after 7 days culturing by CellTiter 96 Aqueous non-radioactive cell proliferation assay; type: functional, cell-based; conditions: 168 h

Sequence of DNA-binding protein Ikaros (Homo sapiens) (Q13422 whole entry): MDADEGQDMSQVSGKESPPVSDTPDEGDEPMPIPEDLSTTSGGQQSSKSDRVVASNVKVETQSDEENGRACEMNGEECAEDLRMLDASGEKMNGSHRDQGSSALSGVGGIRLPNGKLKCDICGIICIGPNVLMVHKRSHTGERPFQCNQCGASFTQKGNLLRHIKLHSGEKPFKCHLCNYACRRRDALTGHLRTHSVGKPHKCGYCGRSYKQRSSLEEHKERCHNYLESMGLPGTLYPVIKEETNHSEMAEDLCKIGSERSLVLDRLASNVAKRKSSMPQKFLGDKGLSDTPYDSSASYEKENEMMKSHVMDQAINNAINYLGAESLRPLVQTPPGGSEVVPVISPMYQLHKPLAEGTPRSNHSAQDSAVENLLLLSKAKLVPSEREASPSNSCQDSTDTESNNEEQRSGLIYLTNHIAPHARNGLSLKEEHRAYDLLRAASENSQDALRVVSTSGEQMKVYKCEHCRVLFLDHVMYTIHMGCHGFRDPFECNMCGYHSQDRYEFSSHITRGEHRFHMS
Sequence of Zinc finger protein Aiolos (Homo sapiens) (Q9UKT9 whole entry): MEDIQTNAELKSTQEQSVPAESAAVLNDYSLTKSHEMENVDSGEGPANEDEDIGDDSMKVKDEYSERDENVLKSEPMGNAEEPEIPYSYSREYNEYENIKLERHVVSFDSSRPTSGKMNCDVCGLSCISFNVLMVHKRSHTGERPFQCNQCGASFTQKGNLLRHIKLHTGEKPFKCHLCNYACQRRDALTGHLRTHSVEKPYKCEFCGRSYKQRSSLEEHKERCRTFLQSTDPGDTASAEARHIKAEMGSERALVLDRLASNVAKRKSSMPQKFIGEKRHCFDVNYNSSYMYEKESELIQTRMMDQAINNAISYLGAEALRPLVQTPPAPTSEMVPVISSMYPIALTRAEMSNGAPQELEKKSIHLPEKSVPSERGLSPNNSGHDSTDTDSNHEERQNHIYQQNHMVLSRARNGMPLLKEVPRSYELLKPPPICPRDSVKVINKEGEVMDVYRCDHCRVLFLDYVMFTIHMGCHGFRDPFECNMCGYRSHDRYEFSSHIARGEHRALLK

- Activity [1]: Dose-dependent effect
- Activity [2]: Dose-dependent effect
Structure (SMILES): COc1ccccc1Sc1cccc2c1CN(C1CCC(=O)NC1=O)C2=O (stereo unspecified)

- Activity [3]: Active
- Activity [4]: Active
Structure (SMILES): O=C1CCC(N2Cc3c(Sc4ccc(F)cc4)cccc3C2=O)C(=O)N1 (stereo unspecified)

- half-life [5]: 19.3 h
- Stabilty [6]: 91.5%
- CL [7]: 138.7 mL/min
- CLH [8]: 1.8 mL/min/g
- CLH [10]: 127 mL/min
- IC50 [11]: 81 nM
Structure (SMILES): Nc1cccc2c1CN(C1CCC(=O)NC1=O)C2=O (stereo unspecified) [LENALIDOMIDE]
- inhibition in vivo at 60 mg/kg/day [9]: 62.6%
